Patent US20260234147A1 (priority 2023, published 2026)
Like-named read-outs stand apart in the source and are kept apart here.

Key:
hMOR [1] = target: T1, hMOR (Homo sapiens, UniProt P35372); assay: Radioligand binding assay (Eurofins Cerep), [3H]DAMGO displacement
hKOR = hKOR (Homo sapiens, UniProt P41145); assay: Radioligand binding assay (Eurofins Cerep), [3H]U69,593 displacement
hDOR = hDOR (Homo sapiens, UniProt P41143); assay: Radioligand binding assay (Eurofins Cerep), [3H]DADLE displacement
hDOR, sequence (P41143 whole entry): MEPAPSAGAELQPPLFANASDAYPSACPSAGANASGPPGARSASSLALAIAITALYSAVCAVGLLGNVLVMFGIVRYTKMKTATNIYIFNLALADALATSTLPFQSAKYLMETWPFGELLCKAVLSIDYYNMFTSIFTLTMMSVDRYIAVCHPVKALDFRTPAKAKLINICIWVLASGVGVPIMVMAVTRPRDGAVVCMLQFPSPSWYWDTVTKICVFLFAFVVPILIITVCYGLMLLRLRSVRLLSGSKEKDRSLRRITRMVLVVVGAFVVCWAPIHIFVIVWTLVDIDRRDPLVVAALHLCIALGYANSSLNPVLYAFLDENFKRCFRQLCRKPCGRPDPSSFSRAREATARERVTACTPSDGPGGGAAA

α2A adrenergic receptor = target: T2, α2A adrenergic receptor (Homo sapiens, UniProt P08913); assay: Radioligand binding assay (Eurofins Cerep), [3H]RX 821002 displacement
T2 construct: Eurofins Cerep (contract screening)
T2 sequence (P08913 1-465): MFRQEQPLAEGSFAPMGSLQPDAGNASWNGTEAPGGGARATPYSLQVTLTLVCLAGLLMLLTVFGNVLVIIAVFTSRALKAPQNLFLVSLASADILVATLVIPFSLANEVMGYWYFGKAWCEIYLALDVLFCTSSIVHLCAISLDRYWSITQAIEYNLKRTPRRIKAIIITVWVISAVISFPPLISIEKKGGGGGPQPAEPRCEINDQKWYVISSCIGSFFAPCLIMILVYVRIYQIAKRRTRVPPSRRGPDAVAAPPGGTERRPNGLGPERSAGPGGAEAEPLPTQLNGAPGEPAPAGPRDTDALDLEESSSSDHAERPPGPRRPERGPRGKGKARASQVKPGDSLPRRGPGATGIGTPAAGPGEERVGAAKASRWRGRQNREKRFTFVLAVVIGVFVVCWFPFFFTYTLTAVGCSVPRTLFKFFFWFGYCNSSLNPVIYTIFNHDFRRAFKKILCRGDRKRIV

α2C adrenergic receptor = target: T3, α2C adrenergic receptor (Homo sapiens, UniProt P18825); assay: as above; settings: Ki (nM ± SEM) a2C-AR, 3 independent experiments
T3 construct: Eurofins Cerep (contract screening)
T3 sequence (P18825 1-462): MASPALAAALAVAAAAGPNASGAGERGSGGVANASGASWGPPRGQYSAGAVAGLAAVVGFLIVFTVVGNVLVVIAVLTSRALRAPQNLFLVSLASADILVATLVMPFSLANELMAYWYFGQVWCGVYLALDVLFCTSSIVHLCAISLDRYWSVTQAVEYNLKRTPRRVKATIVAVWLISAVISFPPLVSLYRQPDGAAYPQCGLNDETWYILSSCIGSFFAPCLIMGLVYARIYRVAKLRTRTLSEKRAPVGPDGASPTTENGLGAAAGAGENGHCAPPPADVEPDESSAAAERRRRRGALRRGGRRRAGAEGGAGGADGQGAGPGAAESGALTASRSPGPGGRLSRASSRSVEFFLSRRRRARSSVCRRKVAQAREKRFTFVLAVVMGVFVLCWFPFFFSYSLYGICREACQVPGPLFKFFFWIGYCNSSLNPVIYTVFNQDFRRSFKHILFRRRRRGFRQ

hMOR [2] = target: T1, hMOR; assay: cell-based; design: expressed in transfected cells; settings: for Emax: CHO
[3] = Table 3-7, human MOR, read-out: MOR Ki (nM ± SEM)
[4] = Table 3-1, 3 independent experiments, read-out: Ki (nM ± SEM) KOR
[5] = Table 3-1, 3 independent experiments, read-out: Ki (nM ± SEM) DOR

T1 sequence (P35372 whole entry): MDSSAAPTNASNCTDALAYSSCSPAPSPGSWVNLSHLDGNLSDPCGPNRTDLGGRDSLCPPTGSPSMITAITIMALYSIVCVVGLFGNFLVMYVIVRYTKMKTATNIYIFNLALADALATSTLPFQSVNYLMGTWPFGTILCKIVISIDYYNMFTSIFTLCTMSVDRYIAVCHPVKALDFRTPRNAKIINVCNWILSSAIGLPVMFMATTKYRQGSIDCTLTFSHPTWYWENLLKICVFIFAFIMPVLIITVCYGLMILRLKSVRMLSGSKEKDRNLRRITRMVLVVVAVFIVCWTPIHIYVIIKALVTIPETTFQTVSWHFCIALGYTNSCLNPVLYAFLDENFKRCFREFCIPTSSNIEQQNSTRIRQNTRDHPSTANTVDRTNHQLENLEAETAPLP
hKOR, sequence (P41145 whole entry): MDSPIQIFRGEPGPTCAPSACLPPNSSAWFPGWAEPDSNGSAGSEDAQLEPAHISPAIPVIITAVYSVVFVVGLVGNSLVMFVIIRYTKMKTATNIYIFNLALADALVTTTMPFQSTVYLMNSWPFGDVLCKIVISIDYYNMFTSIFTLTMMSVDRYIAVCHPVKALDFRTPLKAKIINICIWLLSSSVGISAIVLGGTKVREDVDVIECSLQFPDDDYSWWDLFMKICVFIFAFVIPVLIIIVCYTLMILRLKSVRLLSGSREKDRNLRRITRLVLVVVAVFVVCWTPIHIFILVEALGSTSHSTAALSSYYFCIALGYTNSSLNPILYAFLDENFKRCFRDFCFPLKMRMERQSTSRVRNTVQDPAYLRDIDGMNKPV

## COC(=O)CC1CCN(CCc2c[nH]c3ccccc23)CC1 [Compound 3-24]
hMOR [1]; Table 3-1
  SR: Selectivity Ratio (KiMOR/Kiα2A): 1.58
hMOR [1]; Table 3-1, 3 independent experiments, read-out: Ki (nM ± SEM) MOR
  Ki: 2230 ± 42.6 nM
hMOR [1]; Table 3-2
  SR: Selectivity Ratio (KiMOR/Kiα2A): 1.58
hMOR [1]; Table 3-2, 3 independent experiments, read-out: Ki (nM ± SEM) MOR
  Ki: 2230 ± 42.6 nM
hMOR [1]; Table 3-3
  SR: Selectivity Ratio (KiMOR/Kiα2A): 1.58
hMOR [1]; Table 3-3, 3 independent experiments, read-out: Ki (nM ± SEM) MOR
  Ki: 2230 ± 42.6 nM
hMOR [1]; Table 3-4
  SR: Selectivity Ratio (KiMOR/Kiα2A): 1.58
hMOR [1]; Table 3-4, 3 independent experiments, read-out: Ki (nM ± SEM) MOR
  Ki: 2230 ± 42.6 nM
hMOR [1]; Table 3-5
  SR: Selectivity Ratio (KiMOR/Kiα2A): 1.58
hMOR [1]; Table 3-5, 3 independent experiments, read-out: Ki (nM ± SEM) MOR
  Ki: 2230 ± 42.6 nM
hMOR [1]; Table 3-6
  SR: Selectivity Ratio (KiMOR/Kiα2A): 1.58
hMOR [1]; Table 3-6, 3 independent experiments, read-out: Ki (nM ± SEM) MOR
  Ki: 2230 ± 42.6 nM
hMOR [1]; [3]
  Ki: 2230 ± 43 nM
hKOR; [4]
  Ki: > 10000 nM
hKOR; Table 3-2, 3 independent experiments, read-out: Ki (nM ± SEM) KOR
  Ki: > 10000 nM
hKOR; Table 3-3, 3 independent experiments, read-out: Ki (nM ± SEM) KOR
  Ki: > 10000 nM
hKOR; Table 3-4, 3 independent experiments, read-out: Ki (nM ± SEM) KOR
  Ki: > 10000 nM
hKOR; Table 3-5, 3 independent experiments, read-out: Ki (nM ± SEM) KOR
  Ki: > 10000 nM
hKOR; Table 3-6, 3 independent experiments, read-out: Ki (nM ± SEM) KOR
  Ki: > 10000 nM
hDOR; [5]
  Ki: > 10000 nM
hDOR; Table 3-2, 3 independent experiments, read-out: Ki (nM ± SEM) DOR
  Ki: > 10000 nM
hDOR; Table 3-3, 3 independent experiments, read-out: Ki (nM ± SEM) DOR
  Ki: > 10000 nM
hDOR; Table 3-4, 3 independent experiments, read-out: Ki (nM ± SEM) DOR
  Ki: > 10000 nM
hDOR; Table 3-5, 3 independent experiments, read-out: Ki (nM ± SEM) DOR
  Ki: > 10000 nM
hDOR; Table 3-6, 3 independent experiments, read-out: Ki (nM ± SEM) DOR
  Ki: > 10000 nM
α2A adrenergic receptor; Ki (nM ± SEM) a2A-AR, Table 3-1, 3 independent experiments
  Ki: 1410 ± 122 nM
α2A adrenergic receptor; Ki (nM ± SEM) a2A-AR, Table 3-2, 3 independent experiments
  Ki: 1410 ± 122 nM
α2A adrenergic receptor; Ki (nM ± SEM) a2A-AR, Table 3-3, 3 independent experiments
  Ki: 1410 ± 122 nM
α2A adrenergic receptor; Ki (nM ± SEM) a2A-AR, Table 3-4, 3 independent experiments
  Ki: 1410 ± 122 nM
α2A adrenergic receptor; Ki (nM ± SEM) a2A-AR, Table 3-6, 3 independent experiments
  Ki: 1410 ± 122 nM
α2A adrenergic receptor; Ki (nM ± SEM) a2A-ar, Table 3-5, 3 independent experiments
  Ki: 1410 ± 122 nM
α2C adrenergic receptor; Table 3-2
  Ki: > 10000 nM
α2C adrenergic receptor; Table 3-3
  Ki: > 10000 nM
α2C adrenergic receptor; Table 3-4
  Ki: > 10000 nM
α2C adrenergic receptor; Table 3-5
  Ki: > 10000 nM
α2C adrenergic receptor; Table 3-6
  Ki: > 10000 nM
hMOR [2]
  functional character at MOR: low, but measurable, partial agonist activity
hMOR [2]; read-out: MOR Emax ± SEM (%)
  Emax: 23.8 ± 6.7%
hMOR [2]; read-out: Emax at MOR (FIG. 1)
  Emax: 24%
hMOR [2]; read-out: MOR EC50 ± SEM
  EC50: 1.22 µM

## CC[C@@H]1CN2CCc3c([nH]c4ccccc34)[C@@H]2C[C@@H]1/C(=C\OC)C(=O)OC [Corynantheidine, reference compound]
hMOR [1]; Table 3-1
  SR: Selectivity Ratio (KiMOR/Kiα2A): 0.97
hMOR [1]; [3]
  Ki: 450 ± 100 nM
hMOR [1]; Table B1′, read-out: MOR Ki ± SEM
  Ki: 2520 ± 372 nM
hKOR; [4]
  Ki: 4060 ± 969 nM
hKOR; Table B1′, read-out: KOR Ki ± SEM
  Ki: 1030 ± 162 nM
hDOR; [5]
  Ki: 2790 ± 171 nM
hDOR; Table B1′, read-out: DOR Ki ± SEM
  Ki: 2410 ± 1200 nM
α2A adrenergic receptor; Table 3-1, 3 independent experiments, read-out: Ki (nM ± SEM) a2A-AR
  Ki: 351 ± 58.7 nM
α2A adrenergic receptor; Table B1′, read-out: alpha2A Ki ± SEM
  Ki: 68 ± 12 nM
α2C adrenergic receptor; Table 3-1
  Ki: 135 ± 12.5 nM
hMOR [2]; read-out: MOR Emax ± SEM (%)
  Emax: 8.32 ± 3.4%
